What all share (test): NCI anticancer screen, dose series, 48 h
Assay [1] deals with OVCAR-4 ovarian.
Assay [2] has as its system DU-145 prostate.
Assay [3] concerns MDA-MB-231 breast.
Assay [4] deals with MDA-N.
Assay [5] concerns SR leukemia.
For assay [6], the system named is MDA-MB-435.
Assay [7] has as its system PC-3 prostate.
Assay [8] relates to ACHN renal.
The test system of assay [9] is T-47D breast.
Assay [10] has as its system RPMI-8226 leukemia.

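Where inhibition never reached the appropriate level, the endpoint shown equals the highest concentration tested. Otherwise, values were interpolated linearly from a five-concentration, 48-hour dose response in 96-well plates. GI50 marks 50% less growth. At the TGI there is no net growth.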

As for `COc1ccc(NC(=O)/C(CC2=Nc3ccc([N+](=O)[O-])cc3NC2O)=N\NC(=O)C[N+](C)(C)C)c(OC)c1` (stereo not given), the TGI in assay [1] is over 100 µM; in [2], over 100 µM; in [3], 42.1 µM; in [4], over 100 µM; in [5] it was 48.6 µM; in [6] it was over 100 µM. For the same compound, the TGI in assay [7] and in assay [8] was over 100 µM in each case.

Consider `Brc1ccccc1-c1ncc(-c2ccccc2)o1`, for which the TGI in assay [1] is over 100 µM; in [2] it was over 100 µM; in assay [3] it was over 100 µM; in assay [9], over 100 µM; in [10], 48.8 µM; in assay [4], over 100 µM. Besides, the TGI was 60.4 µM in assay [6], over 100 µM in assay [7] and over 100 µM in assay [8].

On to `N#Cc1c(NC(=S)NC(=O)c2ccccc2)nc2c(c1-c1ccccc1)CCCC2`, for which the TGI in assay [1], in assay [2], in assay [3], in assay [9], in assay [10] and in assay [4] was over 100 µM in each case. Further, the TGI in assay [5], in assay [6] and in assay [7] was over 100 µM in each case.

Turning to `COc1cc(C2c3cc4c(cc3[C@@H](Nc3cccc(C(C)=O)c3)C3COC(=O)[C@H]23)OCO4)cc(OC)c1O` (stereo not given in full), the TGI in assay [1] was over 100 µM; in [10], 2.21 µM.

For `CCOC(=O)/C=C(\C)c1ccc(OC)cc1`, the TGI in assay [1], in [10], in [5] and in [8] was over 100 µM in each case.

On to `CN(C)c1ccc(N=Nc2ccccn2)cc1`, for which the TGI in assay [1], in assay [2], in assay [3], in assay [9], in assay [10] and in [4] was over 100 µM each time. Also, the TGI in assay [6] is over 100 µM; in [7], 81.9 µM; in assay [8], over 100 µM.

As to `ClCc1c(Cl)c(Cl)c(Cl)c(CCl)c1Cl`, the GI50 was 1.62 µM in assay [1]; 1.98 µM in assay [2]; 1.81 µM in assay [3]; 1.99 µM in assay [9]; 1.86 µM in [10]; 1.48 µM in assay [5]. Further, the GI50 in [6] was 2.16 µM; in assay [7], 1.69 µM; in assay [8], 1.64 µM. Also, the TGI in assay [1] was 2.98 µM; in [2] it was 3.99 µM; in assay [3], 3.29 µM; in assay [9] it was 3.87 µM; in assay [10], 4.24 µM; in assay [5] it was 5 µM. Moreover, the TGI was 5.68 µM in [6], 3.15 µM in [7] and 3 µM in assay [8].

With `C#CC[C@@H]1C[C@]2(C)[C@H]3CC=C4[C@H]5CC(C)(C)CC[C@]5(C(=O)NCCCCN)CC[C@@]4(C)[C@]3(C)CC[C@H]2C(C)(C)[C@H]1OC(C)=O`, the GI50 in [1] is 1.71 µM; in assay [2] it was 1.7 µM; in assay [3] it was 1.61 µM; in assay [9], 1.72 µM; in [6], 1.69 µM; in assay [7], 1.55 µM. Besides, in assay [8], the GI50 was 1.73 µM. The TGI in [1] was 3.23 µM; in assay [2] it was 3.15 µM; in [3] it was 3.1 µM; in [9], 3.48 µM; in [6], 3.1 µM; in assay [7], 2.93 µM. Further, the TGI in assay [8] was determined as 3.11 µM.

For `CC(C)(Br)C1(O)CCCN1C(=O)c1ccccc1` (stereo not given), the TGI in assay [5] and in assay [8] was over 100 µM in each case.

As for `Cc1ccc(S(N)(=O)=O)cc1`, the TGI in assay [2], in assay [9], in assay [10], in assay [4], in assay [5] and in [6] was over 1000 µM in each case. Moreover, the TGI in assay [7] and in [8] was over 1000 µM throughout.

On to `COc1ccc(-c2cc(N3CCN(c4ccccc4)CC3)c(C#N)c(=O)o2)cc1`, for which the TGI in [1] is 15 µM; in assay [10] it was over 100 µM; in assay [5], over 100 µM; in [8] it was over 100 µM.

Consider `NCc1ccc(C(=O)O)cc1`, for which the TGI in [1], in assay [2], in assay [3], in assay [9], in assay [4] and in assay [5] was over 100 µM each time. The TGI in [6], in [7] and in [8] was over 100 µM each time.

As to `COc1ccc(NC(=O)/C(=C/c2ccc(N(CCC#N)CCC#N)cc2)NC(=O)c2cc([N+](=O)[O-])ccc2Cl)cc1`, the TGI in assay [1] was over 100 µM; in assay [10] it was over 100 µM; in assay [5] it was over 100 µM; in [8], 59.5 µM.

Values taken from PubChem BioAssay (NCI).
